Series [1] is described as follows: Comparative solubility of BMDBM in 1:1 mixture of C12-15 alkyl benzoate and a polymeric or solid UV-filter.
Excerpt: Where necessary the mixture was centrifuged in order to obtain a clear supernatant.
Series [2] can be described thus: Solubility of BMDBM and BEMT in cosmetic solvent with and without PG-UVB (saturation, HPLC of supernatant; storage test). Particulars: 200 mg BEMT in 800 mg diethylhexyl adipate/PG-UVB1 1:1, 1 month at RT.

Experimental findings from patent US20120288456A1, “NOVEL COMPOUND” (priority 2009, published 2012) are described below.

For `CCCCC(CC)COc1ccc(-c2nc(-c3ccc(OC)cc3)nc(-c3ccc(OCC(CC)CCCC)cc3O)n2)c(O)c1` (stereo not shown) [BEMT, bis-ethylhexyloxyphenol methoxyphenyl triazine], in series [1] (C12-15 alkyl benzoate/UV-filter 1:1, label = UV-filter), the “Δ solubility of BMDBM related to cosmetic solvent” value is −4 wt.-%. In series [1] (C12-15 alkyl benzoate/UV-filter 1:1 versus C12-15 alkyl benzoate, label = UV-filter), the “Δ solubility of BMDBM” value is on record as −11 wt.-%. The “Solubility of BMDBM in C12-15 alkyl benzoate/UV-filter 1:1” value in series [1] (label = UV-filter in 1:1 mixture, 200 mg BMDBM in 1000 mg mixture, 1 month at RT, HPLC of supernatant) is on record as 3 wt.-%. Also, the re-crystallization on storage result in series [2] is on record as “no re-crystallization occurred”.
